Read-outs that look alike come from different tables or passages of the source.

In assay [1] the test system is HbA1c. Particulars: cited from earlier work.
For assay [2], the system named is HbA1c. The settings on record: over the duration of the trial; 95% CI −0.61 to −0.56; p<0.001; cited from earlier work.
Assay [3] has as its system HbA1c. Particulars: T2DM and albuminuric CKD, cited from earlier work.
Assay [4] concerns HbA1c. The assay can be described thus: BETonMACE Phase 3 trial (NCT02586155), post-hoc analysis of HbA1c from baseline to last visit on treatment (LVT). It counts as in vivo, human.
Description: Apabetalone (RVX-208) was evaluated in a recently completed clinical Phase 3 trial (BETonMACE; NCT02586155) for the effect on MACE in type 2 diabetes patients with low HDL cholesterol (below 40 mg/dL for males and below 45 mg/dL for females) and a recent acute coronary syndrome (ACS) (preceding 7-90 days). All patients received high intensity statin treatment or maximum tolerated statin treatment, which was 20-40 mg daily or a maximum daily dose of 40 mg for rosuvastatin or 40-80 mg daily or a maximum daily dose of 80 mg for atorvastatin.
Patients (n=2425) with ACS in the preceding 7 to 90 days, with type 2 diabetes and low HDL cholesterol (≤40 mg/dl for men, ≤45 mg/dl for women), receiving intensive or maximum-tolerated therapy with atorvastatin or rosuvastatin, were assigned in double-blind fashion to receive apabetalone 100 mg orally twice daily or matching placebo.
Specifically, a total of 150 patients received both RVX-208 and an SGLT2 inhibitor; a total of 148 received an SGLT2 inhibitor, but no RVX-208; a total of 1062 received RVX-208, but no SGLT2 inhibitor; a total of 1058 received neither RVX-208 or an SGLT2 inhibitor.
Patients who were randomized and received at least one dose of SGLT2 treatment while actively receiving study drug (RVX-208 or placebo) were counted as those receiving a combination of SGLT2 treatment with either RVX-208 or placebo. Patients receiving more than one drug therapy within the SGLT2 inhibitor class were counted only once based upon whichever drug therapy patients continued taking at the end of treatment with study drug (RVX-208 or placebo). In cases where patients were receiving more than one drug therapy within the SGLT2 inhibitor class at the end of treatment with study drug, whichever SGLT2 inhibitor therapy was received for longer was counted.
The last visit on treatment (LVT) timepoint represented the longest study exposure duration for patients receiving RVX-208 or placebo with and without SGLT2 inhibitors and is the focus of this analysis.

In the case of `OC[C@H]1O[C@@H](c2ccc(Cl)c(Cc3ccc(O[C@H]4CCOC4)cc3)c2)[C@H](O)[C@@H](O)[C@@H]1O` [empagliflozin], in the assay with HbA1c [1] (10-mg group, after 12 weeks, 95% CI −0.58 to −0.49), the “reduction of HbA1c compared to placebo (adjusted mean difference)” value was 0.54%. Also, the “adjusted mean difference in HbA1c levels versus placebo” value with HbA1c [1] (10-mg group, week 94, 95% CI −0.48 to −0.36) is recorded as −0.42%; in the assay on HbA1c [1] (10-mg group, week 206, 95% CI −0.40 to −0.08) it was −0.24%; in the assay on HbA1c [1] (25-mg group, week 94, 95% CI −0.54 to −0.41), −0.47%; in the assay with HbA1c [1] (25-mg group, week 206, 95% CI −0.51 to −0.20), −0.36%. Further, the “adjusted mean difference in HbA1c compared to placebo” value in the assay with HbA1c [1] (25-mg group, after 12 weeks, 95% CI −0.64 to −0.55) is −0.60 percentage points.
For `Cc1ccc([C@@H]2O[C@H](CO)[C@@H](O)[C@H](O)[C@H]2O)cc1Cc1ccc(-c2ccc(F)cc2)s1` [canagliflozin], the “mean difference in HbA1c between drug group and placebo group” value with HbA1c [2] is given as −0.58%. Moreover, the “least-squares mean level of HbA1c lower than in the placebo group by” value in the assay with HbA1c [3] (at 13 weeks, 95% CI 0.26 to 0.37) is 0.31%. In addition, the “overall mean difference in the reduction of HbA1c versus placebo” value in the assay with HbA1c [3] (throughout the trial, 95% CI 0.20 to 0.31) is 0.25%.
As for `COc1cc(OC)c2c(=O)[nH]c(-c3cc(C)c(OCCO)c(C)c3)nc2c1` [RVX-208, 2-(4-(2-hydroxyethoxy)-3,5-dimethylphenyl)-5,7-dimethoxyquinazolin-4(3H)-one], the “ability to reduce levels of HbA1c (in words)” value in the assay on HbA1c [4] (T2DM patients with a recent ACS) was “did not demonstrate the ability to statistically reduce levels of HbA1c”. Further, the “median HbA1c at baseline” value with HbA1c [4] (T2DM patients with low HDL cholesterol and recent ACS on high intensity or maximum tolerated statin, baseline value of the group) came to 7.3%. Moreover, the “median HbA1c at the last visit on treatment (LVT)” value with HbA1c [4] (T2DM patients with recent ACS on statin, apabetalone 100 mg orally twice daily where given, median time to LVT about 2 years) worked out at 7.3%. For the same molecule, the “median change of HbA1c from baseline to LVT” value with HbA1c [4] (T2DM patients with recent ACS, FIG. 3) is listed as “+0.20%”. The “mean change of HbA1c from baseline to LVT” value in the assay on HbA1c [4] (T2DM patients with recent ACS, FIG. 4) is listed as “+0.22%”.

(Values after US20230398137A1, “METHODS FOR LOWERING HBA1C LEVEL WITH A COMBINATION OF A BET BROMODOMAIN INHIBITOR AND A SODIUM DEPENDENT GLUCOSE TRANSPORT 2 INHIBITOR” (Resverlogix Corp., priority 2020, published 2023).)
